“Also recorded” adds a separate entry of the source. Bridges are numbered along the chain shown (N, C = ends). Where no end group is shown, it is not given here.
Legend:
[1] = molecular target: T1, Tamm-Horsfall protein (Homo sapiens, UniProt P07911); assay: Competitive ELISA: peptide inhibition of Tamm-Horsfall protein binding to immunoglobulin light chains bound in microtiter wells; conditions: for inhibition of binding between Tamm-Horsfall protein and human light chains (in words): six human light chains (λ2, 3 and 5 and κ3, 6, and 7), FIG. 7; for inhibition of binding of Tamm-Horsfall protein to immunoglobulin light chain (in words): uncyclized and cyclized peptide, FIG. 5
Text: Peptides known to react with the Tamm-Horsfall protein in the yeast two-hybrid assay were synthesized, cyclized, and used as inhibitors in a competitive ELISA experiment. The peptides were cyclized by adding cysteine residues to the amino and carboxyl-terminal portions of the peptides and generating an intramolecular disulfide bridge (FIG. 4). Cyclization facilitates formation of the loop structure in solution. Both the linear and cyclized peptides inhibited the binding of the Tamm-Horsfall protein to the immunoglobulin light chains bound in the wells of the microtiter plate, but the efficiency of inhibition was increased by cyclization of the peptide inhibitor.
(§1) Mutation of the CDR3 sequence to disrupt the loop structure by substituting amino acid residues with phenyalanine confirmed that the secondary structure was an important determinant of binding (FIG. 6). The inhibitory capability of cyclized experimental (CLSADSSGSYLYVC (SEQ ID NO:32)) and control (CLSAFSFGFYLYVC (SEQ ID NO:33)) peptides were then compared in a competitive ELISA assay.

[2] = test system: Tamm-Horsfall protein; assay: Yeast two-hybrid assay of CDR3 inserts ligated between Framework 2 and Framework 3 of LKPBLL53; format: binding, human; conditions: FIG. 6, N=7
Text: Addition of the framework regions permits each CDR3, which was ligated into the construct using Sma1 and BamH1, to achieve proper folding into a loop structure. […] The CDR3 domain of ITPBLL2 differed from the CDR3 domain of ITPBLL1 (SEQ ID NO:28) by only two amino acids (underlined), which were sufficient to inhibit formation of a loop structure, and, thus, binding to the Tamm-Horsfall protein. […] N=6 experiments for each group.
Among those CDR3 domains that were predicted to form a loop, affinity for the Tamm-Horsfall protein was strong and correlated with that observed using the intact VL from the parent light chain.
as §1

[3] = test system: rat model of cast nephropathy; assay: Rat model of cast nephropathy by administration of human kappa and lambda light chains; format: in vivo; conditions: rats given human kappa and lambda light chains
Experimental: The competitor peptides, SEQ ID NO:1 and SEQ ID NO:2, have been used in a rat model of cast nephropathy, which employed administration of human kappa and lambda light chains. […] Rats were injected intraperitoneally with 40 mg of cyclized competitor peptide, SEQ ID NO:2 (pep), or vehicle alone (veh) just prior to intraperitoneal injection of 100 mg of human kappa or lambda light chain purified from patients who had multiple myeloma and kidney damage. On the following day, rats also received an additional injection of competitor peptides, SEQ ID NO:1 (20 mg) or vehicle. Rats were examined three days after the initial injection.

[4] = molecular target: T1, Tamm-Horsfall protein; assay: Competition studies of synthetic CDR3 peptide with light chains from myeloma patients for binding to Tamm-Horsfall protein; conditions: six different immunoglobulin light chains from patients with myeloma and cast nephropathy
Text: The yeast two-hybrid system was employed to determine the site on the immunoglobulin light chain that interacted with the Tamm-Horsfall protein. Using 248- and 787-base pair fragments of the Tamm-Horsfall protein, which contained the previously described immunoglobulin light chain-binding domain, the interaction with unique immunoglobulin light chains that represented a variety of the known isotypes of κ and λ immunoglobulin light chains was examined. […] While this was considered an advance, this peptide was not considered to bind avidly enough to the Tamm-Horsfall protein to serve as an effective inhibitor in vivo.

## CLSADSSGSYLYVC (disulfide 1-14 (inferred)) [cyclized experimental peptide]
[1]
  inhibition of binding between Tamm-Horsfall protein and human light chains (in words): completely prevented the binding; also recorded: very efficient inhibitor

## CLSAFSFGFYLYVC (disulfide 1-14 (inferred)) [cyclized control peptide, reference compound]
[1]
  inhibition of binding between Tamm-Horsfall protein and human light chains (in words): did not effectively inhibit binding

## LSADSSGSYLYV
[2]
  interaction of wildtype and phenylalanine-mutated CDR3 sequence with Tamm-Horsfall protein (in words): interacted strongly

## LSADSSGSYLYVF [peptide 2, LSADSSGSYLYVF]
[1]
  inhibition of binding of Tamm-Horsfall protein to immunoglobulin light chain (in words): inhibit binding
[3]
  effect on cast formation, acute renal failure and renal function (in words): prevented cast formation and acute renal failure and improved renal function

## LSAFSFGFYLYV [ITPBLL86 CDR3 mutated with three phenylalanines]
[2]
  interaction of wildtype and phenylalanine-mutated CDR3 sequence with Tamm-Horsfall protein (in words): none of the mutated sequences interacted

## LSAFSFGSYLYV [ITPBLL86 CDR3 mutated with two phenylalanines]
[2]
  interaction of wildtype and phenylalanine-mutated CDR3 sequence with Tamm-Horsfall protein (in words): none of the mutated sequences interacted

## LSAFSSGSYLYV [ITPBLL86 CDR3 mutated with one phenylalanine]
[2]
  interaction of wildtype and phenylalanine-mutated CDR3 sequence with Tamm-Horsfall protein (in words): none of the mutated sequences interacted

## MQGTHWPPLT [synthetic peptide identical to the CDR3 region of SSH23]
[4]
  competition with light chains for binding to Tamm-Horsfall protein (in words): effectively competed

## QSYDNTLSGSYVF [peptide 1, QSYDNTLSGSYVF]
[1]
  inhibition of binding of Tamm-Horsfall protein to immunoglobulin light chain (in words): inhibit binding
[3]
  effect on cast formation, acute renal failure and renal function (in words): prevented cast formation and acute renal failure and improved renal function

From patent publication US8628781B2, “Prevention and treatment of cast nephropathy” (The UAB Research Foundation, priority 2010, dated 2014)
